Reference: ChEMBL document CHEMBL1145264, “Synthesis of tricyclic analogs of stephaoxocanidine and their evaluation as acetylcholinesterase inhibitors” (Bioorg Med Chem Lett, 2005)
Several values for one entry are separate records, joined by “and”; a condition that tells them apart may be missing. Equal entries are not always repeated.

Biological target: Acetylcholinesterase (Homo sapiens, UniProt P22303)
Sequence (P22303 whole entry): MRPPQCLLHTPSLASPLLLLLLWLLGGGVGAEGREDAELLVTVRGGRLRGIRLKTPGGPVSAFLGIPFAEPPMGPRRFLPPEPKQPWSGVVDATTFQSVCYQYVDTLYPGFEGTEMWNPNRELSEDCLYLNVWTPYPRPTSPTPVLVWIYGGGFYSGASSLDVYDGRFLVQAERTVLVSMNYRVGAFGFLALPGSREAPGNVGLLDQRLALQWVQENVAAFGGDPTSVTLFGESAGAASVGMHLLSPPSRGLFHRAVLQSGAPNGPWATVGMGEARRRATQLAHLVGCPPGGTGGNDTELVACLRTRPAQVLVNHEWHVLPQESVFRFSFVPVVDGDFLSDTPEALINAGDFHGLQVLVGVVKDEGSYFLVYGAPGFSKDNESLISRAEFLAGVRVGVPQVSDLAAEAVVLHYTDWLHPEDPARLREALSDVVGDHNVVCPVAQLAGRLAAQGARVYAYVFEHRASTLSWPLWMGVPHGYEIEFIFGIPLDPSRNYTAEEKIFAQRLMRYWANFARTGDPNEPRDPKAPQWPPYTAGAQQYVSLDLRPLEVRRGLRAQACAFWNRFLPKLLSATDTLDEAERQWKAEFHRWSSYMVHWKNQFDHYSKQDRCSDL
Description: Inhibitory concentration against acetylcholinesterase

In the case of C=CCC1(OC)OCc2c(OC)c(OC)cc3ccnc1c23 (stereo not drawn), the IC50 is reported as 100 µM and 99.6 µM.
Compound COc1cc2ccnc3c2c(c1OC)COC3(CCCO)OC (stereo not drawn) has an IC50 of 137 µM.
With C=CCC1(O)OCc2c(OC)c(OC)cc3ccnc1c23 (stereo not drawn) the IC50 was 174 µM.
For COc1cc2ccnc3c2c(c1OC)COC3(O)CC(O)CO (stereo not drawn), the IC50 was 109 µM.
With COc1cc2cc[n+](C)c3c2c(c1OC)C(Br)OC3=O (stereo not drawn) the IC50 was 105 µM and 120 µM.
In the case of COc1cc2ccnc3c2c(c1OC)COC3(CC(O)CO)OC (stereo not drawn), the IC50 is reported as 96 µM and 95.4 µM.
COc1cc2ccnc3c2c(c1OC)COC3=O showed an IC50 of 19.6 µM.
In the case of COc1cc2ccnc3c2c(c1OC)C(Br)OC3=O (stereo not drawn), the IC50 is reported as 46 µM and 46.3 µM.
